# Results from patent US20260137790A1, “MIXED VASOPRESSIN RECEPTOR AGONIST-ANTAGONIST FOR MODULATING MEAN ARTERIAL PRESSURE” (FERRING B.V., priority 2022, published 2026).
# How the values were obtained:
# [1] = target: T1, rV2 (Rattus norvegicus, UniProt Q00788); experiment: Luciferase reporter gene assay, rV2; format: cell-based; conditions: rV2, relative to dDAVP
# T1 construct: host or cells: HEK-293 cells, transient
# Experimental: (§1) Cell Maintenance. HEK-flp-in cells were maintained in Dulbecco's modified Eagle's medium (DMEM) containing 10% (v/v) heat-inactivated fetal bovine serum (FBS), 4 mM GlutaMAX™—I, and 25 μg/mL hygromycin B at 37° C. under 5% CO2 in a humidified atmosphere. […] On the day prior to the assay, cells were removed from culture flasks using trypsin EDTA, harvested in the medium used for cell culture, and seeded into 384-well (for V1a) or 96-well (for other receptors) poly-d-Iysine-treated plates at 7.5×10^4 cells in 20 μL/well for rV1a, 2.5×10^4 cells in 20 μL/well for hV1a, and 4-5×10^4 cells in 100 μL/well for all other receptors.
# (§2) Functional Cell-Based Assays. To detect activity generated by binding of the test compounds to endogenous rV1a receptors or the stably expressed hV1a receptors, Fluorometric Imaging Plate Reader (FLlPR) calcium assays were performed. Briefly, real-time fluorescence of an intracellular calcium-sensitive dye was measured immediately upon addition of the test compound at various concentrations. […] Reporter gene assays were used to monitor agonist-induced activity at the human and rat V1b, V2, and OT receptors. […] Expression of the luciferase gene was determined after 5-h incubation with various concentrations of test compound. […] For V1a receptor response, area under the curve of the real-time calcium traces, expressed as relative fluorescence units, was determined. […]
# [2] = target: T2, rOTR (Rattus norvegicus, UniProt P70536); conditions: relative to carbetocin
# T2 sequence (P70536 1-388): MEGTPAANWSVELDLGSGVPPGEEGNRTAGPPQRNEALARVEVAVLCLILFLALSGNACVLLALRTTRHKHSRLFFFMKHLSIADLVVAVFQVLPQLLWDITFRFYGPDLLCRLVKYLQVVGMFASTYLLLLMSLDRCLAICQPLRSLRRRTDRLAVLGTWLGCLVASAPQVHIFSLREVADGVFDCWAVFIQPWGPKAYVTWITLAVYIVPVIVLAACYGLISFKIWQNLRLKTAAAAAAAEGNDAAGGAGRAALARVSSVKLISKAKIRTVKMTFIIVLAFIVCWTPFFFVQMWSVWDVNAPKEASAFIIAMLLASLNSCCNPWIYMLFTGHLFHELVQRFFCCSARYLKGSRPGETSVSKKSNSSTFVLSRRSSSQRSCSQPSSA
# Experimental: as §1, §2
# [3] = system: adult male Wistar rats; experiment: Skin blood flow and blood lactate in anesthetized rats (IV infusion); format: in vivo, rat
# Experimental: This study was performed over multiple experiments using a total of 48 adult male Wistar rats. […] Compounds were infused via an IV catheter at six sequentially increasing doses.
# On the day of experimentation animals were anesthetized and instrumented. A tracheostomy was performed to allow assisted respiration and three catheters were placed. Laser Doppler probes were positioned on a shaved portion of the animal's lower abdominal skin for blood-flow measurements. Ventilation was initiated, and baseline readings for the primary parameter of skin blood flow (SBF) were recorded. Readings for the secondary parameters were also recorded: (1) blood lactate concentration, (2) mean arterial pressure (MAP), and (3) blood pH. Data collection was performed continuously for SBF and MAP using NOTOCORD-hem™ (Instem), and blood samples were taken at each compound dose and immediately analyzed using an i-STAT® meter.
# After the final dose administration, animals were euthanized and a final SBF measurement was recorded to detect any signal from the flow probe after the animal's heart stopped beating to control for a signal not attributed to blood flow. Animal body temperature, pulse, and ventilation adequacy were monitored throughout the procedure.
# T1 sequence (Q00788 whole entry): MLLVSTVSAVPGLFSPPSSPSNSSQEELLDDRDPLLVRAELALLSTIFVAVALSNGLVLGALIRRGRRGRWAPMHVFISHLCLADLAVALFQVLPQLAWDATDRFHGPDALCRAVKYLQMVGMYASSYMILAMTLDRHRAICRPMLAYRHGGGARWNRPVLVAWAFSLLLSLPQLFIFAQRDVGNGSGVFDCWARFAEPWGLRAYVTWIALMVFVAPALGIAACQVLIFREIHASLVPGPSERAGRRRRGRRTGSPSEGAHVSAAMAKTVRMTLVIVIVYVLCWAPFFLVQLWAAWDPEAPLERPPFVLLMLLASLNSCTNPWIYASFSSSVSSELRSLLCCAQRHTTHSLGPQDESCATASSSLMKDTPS
compound,measurement,setting,value
"NC(=O)CC[C@@H]1NC(=O)[C@H](Cc2ccccc2)NC(=O)[C@H](Cc2ccc(O)cc2)NC(=O)[C@@H](N)CSSC[C@@H](C(=O)N2CCC[C@H]2C(=O)N[C@@H](CCCN=C(N)N)C(=O)NCC(N)=O)NC(=O)[C@H](CC(N)=O)NC1=O [AVP, arginine vasopressin]",% MPE Mean,[1],98 % MPE
same,% MPE Mean,[2],82 % MPE
same,"ED50, skin blood flow","[3]; anesthetized rats, IV infusion",12.6 pmol/kg/min
same,mean blood lactate concentration,"[3]; rats, IV 3 pmoL/kg/min",1.34 mM
same,mean blood lactate concentration,"[3]; rats, IV 600 pmoL/kg/min",4.27 mM
same,blood lactate at highest doses tested,"[3]; rats, IV, compared with vehicle",significantly elevated
same,decrease of skin blood flow from baseline (approximate maximal),"[3]; rats, intravenous administration",about 90%
